# “And” between values parts separate entries of the source, which are not always exact repeats. Equal values may be shown once. “Also recorded” adds a separate entry of the source.
# Experiments:
# [1] = system: pig skin; details: in vivo, 2 weeks
# Description: Skin areas were visually inspected every day.
# Skin areas were visually inspected every day. Photographs were taken at three day intervals. […] On day 14, pigs were anesthetized with ketamine and azaperon, and euthanized by intracardial application of T61®.
# [2] = system: human umbilical vein endothelial cells (HUVEC); assay: Survival of endothelial cell cultures at 80% and 30% confluency; format: cell-based; details: 2.5 μM
# Experimental: (§1) All cells were treated with 2.5 μM NVX-207. Percentage (means±S.E., n=3) of control-treated cells are given. […] Mean survival in NVX-207 treated fibroblasts at 80% confluency was 92% (S.E.=3.8) versus 3.8% mean survival (S.E.=0.4) at 30% confluency. […] HUVECs, keratinocytes and fibroblast cells were obtained from Lonza GmbH (Wuppertal, Germany) and cultivated according to the manufacturer's instructions.
# (§2) The IC50 value of betulinic acid in human keratinocytes was recently determined to be ˜5.0 μg/ml (Tino Galgon al., Exp Dermatol. 14:736-43, 2005), while the IC50 of NVX-207 is ˜0.7 μg/ml. Consequently, the IC50 value of NVX-207 was almost 10-fold lower compared to betulinic acid on a molar basis. […] Under normal physiological circumstances, the endothelium, as well as fibroblasts and keratinocytes of the tissue like normal skin, show relatively low turn-over and limited cell divisions to maintain tissue integrity. […] Angiogenesis also plays a role in the pathogenesis of rosacea and a topical angiogenesis inhibitor (dobesilate) for treatment of rosacea has been described. Local inhibition of angiogenic factors function may prevent skin angiogenesis and inflammation in rosacea and other angiogenesis-dependent skin diseases in which a dense network of new vessels is produced and inflammatory cells are present. […]
# [3] = system: human keratinocytes; assay: Survival of keratinocyte cultures at 80% and 30% confluency; format: cell-based; details: 2.5 μM; 30% vs 80% confluency
# Experimental: as §1, §2
# [4] = system: canine cancer patients; assay: Inflammation and infection after repeated intralesional injections in dogs; format: in vivo, dog; details: intratumoral treatment of canine malignancies
# Description: FIGS. 3A-D show the effects of intratumoral treatment of NVX-207 in various spontaneously arising canine malignancies (before and after pictures). […] FIGS. 3B-D show NVX-207 treatment effects in a canine mammary carcinoma and two separate cases of soft tissue sarcoma, respectively. […] Microbial infections (with bacteria, fungi, viruses or protozoa) usually almost invariably accompany multiple injections under similar non-sterile conditions, because the coat of the animal cannot be efficiently sterilized. This in turn leads to unwanted treatment interruptions.
# FIGS. 3B-D show NVX-207 treatment effects in a canine mammary carcinoma and two separate cases of soft tissue sarcoma, respectively. […] Microbial infections (with bacteria, fungi, viruses or protozoa) usually almost invariably accompany multiple injections under similar non-sterile conditions, because the coat of the animal cannot be efficiently sterilized. This in turn leads to unwanted treatment interruptions.
# As noted above, strong evidence for an antibacterial activity of NVX-207 also comes from the canine cancer treatments. Dogs were treated over several months by repeated intralesional and peritumoral injections of NVX-207. […] This is highly unusual, since intralesional treatments under the same conditions are usually associated with a high incidence of serious local soft tissue infections leading to treatment interruptions. […]
# [5] = system: Mammary carcinoma; assay: Intratumoral treatment of canine cancer patient, mammary carcinoma; format: in vivo, dog; details: Patient #3, NVX-207 alone 10 mg/ml in 2-hydroxypropyl-γ-cyclodextrin
# Experimental: (§3) A study was performed using NVX-207 on a canine squamous cell carcinoma of the nasal plane. […] Histology was confirmed by biopsy before treatment. Prior to each treatment, the dog was physically examined and routine blood counts and serum chemistry analyses were performed. Tumor measurements were obtained using callipers at each treatment. Tumor size was determined by the longest diameter of the target lesion or by calculating the mean of the longest diameters of the lesion treated. Tumor response was classified as stable (less than 50% change), partial—(decrease by >50%) or as a complete response if no palpable or visible evidence of tumor was available. Intralesional treatment of the patient comprised local infiltration of the local tumor, including 1 cm of the surrounding tissue, with NVX-207 in combination with cisplatin. […] Tumor recurrence was observed 18 months later. […] No further complications were observed.
# (§4) Patients 1, 2, and 3 correspond to the dogs described above with squamous, soft tissue, and mammary carcinoma, respectively. Tumor size and tumor responses were determined as in described above. Intralesional treatment of the patients comprised local infiltration of the local tumor including 1 cm of the surrounding tissue—if applicable—with NVX-207 alone (for patients #2-#4) or in combination with cisplatin (patient #1, see also FIG. 3). […]
# [6] = system: Soft tissue sarcoma; assay: Intratumoral treatment of canine cancer patient, soft tissue sarcoma; format: in vivo, dog; details: Patient #2
# Experimental: as §3, §4
# [7] = system: canine basal cell carcinoma; format: in vivo, dog
# Description: Differential diagnoses included virus induced lesions such as warts which are caused by papillomaviruses, and are thus an example of anti-microbial/anti-viral activity.
# [8] = system: human fibroblasts; assay: Survival of fibroblast cultures at 80% and 30% confluency; format: cell-based; details: 2.5 μM; 30% vs 80% confluency
# Experimental: as §1, §2
# [9] = system: bacteria obtained from the skin surface of an individual; assay: Filter disk growth inhibition on LB-agar plates; format: cell-based
# Experimental: 10 mm filter disks (numbered 1 to 4) were soaked in 10 μl of 10.0, 5.0, 2.5, and 1.25 mg/ml of NVX-207, respectively, and placed on LB-Agar plates on which a skin bacterial isolate had been plated. 15 ml of LB/Agar was used for pouring one plate. Control disks were soaked in 10 μl of the corresponding solvent and paced in the center of the plates. LB-Agar plates were then cultivated over night at 30° C. and bacterial growth was monitored by comparing growth inhibition zones around the soaked disks. […]
# Antibacterial effects of NVX-207 were tested against bacteria obtained from the skin surface of an individual. NVX-207 was used either as a cyclodextrin formulation (NVX-207 (at 10 mg/ml final concentration) was formulated in 2-hydroxypropyl-gamma-cyclodextrin (at 150 mg/ml final concentration) in water) (FIG. 6A), or a Tween 80/Ethanol formulation (described in Example 2) (FIG. 6B). Filter disks 1 to 4 were soaked in 10 μl of 10.0, 5.0, 2.5, and 1.25 mg/ml of NVX-207, respectively, and placed on LB-agar plates (total volume of 15 ml LB-agar per plate) on which a skin bacterial isolate had been plated at low density. Control disks placed in the center of the plates were soaked in 10 μl of the corresponding solvent. LB-Agar plates were then cultivated over night at 30° C. and bacterial growth was examined after 18 hours. […]
# [10] = system: Sweat gland adenocarcinoma; assay: Intratumoral treatment of canine cancer patient, sweat gland adenocarcinoma; format: in vivo, dog; details: Patient #4, NVX-207 alone 10 mg/ml in 2-hydroxypropyl-γ-cyclodextrin
# Experimental: as §3, §4
# [11] = system: human hyperkeratotic lesion with an inflammatory component; assay: Topical treatment of human hyperkeratotic lesion; format: in vivo; details: 1% topical solution
smiles,measurement,setting,value
"C=C(C)[C@@H]1CC[C@]2(C(=O)OCC(N)(CO)CO)CC[C@]3(C)[C@H](CC[C@@H]4[C@@]5(C)CC[C@H](OC(C)=O)C(C)(C)[C@@H]5CC[C@]43C)[C@@H]12 [NVX-207, 3-O-acetylbetulinic acid-2-amino-3-hydroxy-2-hydroxymethylpropyl ester]",macroscopic skin irritations,[1],No macroscopic NVX-207 related skin irritations
same,more effective in sub-confluent (30%) than nearly confluent (80%) endothelial cells,[2],~5 fold
same,more active against proliferating keratinocytes,[3],~6 fold
same,treatment-related inflammation,[4],completely prevented
same,Tumor response,[5],"SD (SD, stable disease)"
same,"OS, overall survival time",[6],15 months
same,Tumor response,"[6]; NVX-207 alone 10 mg/ml in 2-hydroxypropyl-γ-cyclodextrin, intratumoral","PR (PR, partial remission)"
same,reduction of lesion,"[7]; 1% topical solution every second to third day, after 3 weeks",about 90%
same,inflammation or infection at the treatment site,"[7]; dog, in vivo",absence of inflammation or infection
same,more active against proliferating human fibroblasts,[8],over 20 fold
same,estimated concentration at which strong inhibitory effects were seen,"[9]; Tween/Ethanol formulation, assumed distribution volume ~2.5 ml",1 µg/mL and 1.0 µg/mL
same,final concentration at which growth inhibition was seen,"[9]; cyclodextrin formulation, distribution volume approximately 1 ml",~100 µg/mL
same,Tumor response,[10],"SD (SD, stable disease)"
same,side effects on treated skin,[11],"No deleterious (toxic) effects; also recorded: no reddening, inflammation or any side effects"
same,reduction of lesion,[11]; next day after only one treatment,> 80%
